Like-named read-outs stand apart in the source and are kept apart here.
Assays:
OV-1063 cells = test: Apoptosis by chromatin morphology (Hoechst-33342, confocal microscopy); assay type: cell-based, human; details: for Apoptotic OV-1063 cells (% of total cell number), 16 hr: IC50 concentrations
Method: (§1) a) The morphology of chromatin was assessed by staining with Hoechst-33342 obtained from Calbiochem (La Jolla, Calif.), a molecule which when reside in the minor groove of the DNA strand enhance its fluorescence intensity and, therefore, it is preferentially stains dsDNA [Jouvet, P. Mol. Biol. Cell 11:1919-1932 (2000)]. Briefly, samples containing 5*10^5 cells were cultured on 6-well plates covered with a glass coverslip. After treatment of cells with IC50 of drugs, cells were washed with PBS and fixated with 4% formaldehyde. After that cells were stained with Hoechst-33342 (5 μg/ml) and washed. Thereafter, glass coverslip was placed on a glass slide and photographed using a CLMS.

C-26 cells = test: as above; assay type: cell-based, human
Method: as §1

C-26 = test: Methylene blue assay of cell survival; assay type: cell-based, human
Source text: (§2) Several tumor cell lines in monolayers were used. A human ovarian carcinoma cell line (OV-1063), established at the Hadassah University Hospital, a human colon carcinoma cell line (C-26), a DOX-sensitive M-109S ([…]), and a DOX-resistant, M-109R ([…]). All cell lines were maintained in RPMI-1640 medium supplemented with 10% FCS, antibiotics, and glutamine. All culture medium components were purchased from Biological Industries (Beit-HaEmek, Israel). Both cell lines were maintained at 37° C. in a water-jacketed CO2 incubator.
(§3) a) Various ceramides (Cer) with different chain lengths: short (C2 Cer and C4 Cer), medium (C6 Cer and C8 Cer), and long (C16 Cer) were first dissolved in 100% ethanol to a concentration of 30 mM, added to a serum-containing medium and mixed immediately. The final ethanol concentration in the serum-containing culture medium ranged from 0.1-0.5% (depending on the type of ceramide (Cer)).
(§4) b) Various ceramides with different chain lengths: short C2 Cer, medium C6 Cer, and long C16 Cer were dissolved in ethanol:dodecane (98:2 v/v) to a concentration of 30 mM and added to serum-free medium and mixed. Final concentrations of the ethanol and dodecane in the culture medium containing 10% of FCS ranged from 0.098-0.49% and 0.002-0.01%, respectively, depending on the type of ceramide.
(§5) The cytotoxicity of the examined assemblies comprising ceramide was tested by the methylene blue ([…]) staining assay [Gorodetsky, R. et al. Int. J. Cancer. 75:635-642 (1998)]. A known number of exponentially growing cells in 200 μL of medium were plated in 96-microwell, flat-bottomed plates. For each of the variants tested, 4 wells were used. Following 24 hr of incubation in culture, 20 μL of different concentrations of the examined assemblies were added to each well containing untreated cells.
(§6) The following controls were used: Citrate buffer (5 mM, pH 7); Ethanol solution in medium RPMI 1640 (final concentration of 0.1%); A solution RPMI 1640 of ethanol:dodecane (98:2 […]) at a final concentration of 0.1% and 0.2%, respectively.
(§7) Cells were exposed to assemblies for 4, 24, 72 or 96 hr. At the end of assembly exposure, for a fixed time interval, the drug-treated cells, as well as parallel control cells, were washed, and the incubation continued in fresh medium until termination of the experiment. Following 72 hr or 96 hr of growth, cells were fixed by adding 50 μL of 2.5% glutaraldehyde to each well for 15 min. Fixed cells were rinsed 10 times with deionized water and once with borate buffer (0.1 M, pH 8.5), dried, and stained with MB (100 μL of 1% solution in 0.1 M borate buffer, pH 8.5) for 1 h at room temperature (r.t.). Stained cells were rinsed thoroughly with de-ionized water to remove any non-cell-bound dye and then dried. The MB bound to the fixed cells was extracted by incubation at 37° C. with 200 μL of 0.1 N HCl for 1 h, and the net optical density of the dye in each well was determined by a plate spectrophotometer (Labsystems Multyskan Bichromatic, Finland) at 620 nm.

OV-1063 = test: Methylene blue assay of cell survival; assay type: cell-based, human; details: Table 8B
Source text: as §2, §3, §4, §5, §6, §7

[1] = Surface-pressure area isotherms; assay type: physicochemical; details: for minimal area per molecule: constant pressure of 20 mN/m; for collapse point pressure of monolayer: pure water sub-phase; for Area/molecule: table, monolayer on pure water sub-phase
Method: The tested ceramides (C2 Cer, C4 Cer, C6 Cer, C8 Cer, C16 Cer) were dried in vacuum overnight, weighted and dissolved in hexane/isopropanol (3:2 vol.) to make the following stock solutions.
The surface-pressure/area isotherms were obtained on pure water sub-phase (similar isotherms were obtained on 140 mM NaCl). Barrier speed during compression was […] for all monolayers.
The minimal area per molecule of different ceramides (C2 Cer, C4 Cer, C6 Cer, C8 Cer, C16 Cer) was calculated at the constant pressure of 20 mN/m. […] The area per molecule of C2 Cer, C4 Cer, C8 Cer, C16 Cer was about 38, 46, 45.5, and 37.5^2, respectively.

[2] = Size distribution of ceramide dispersions by DLS; assay type: physicochemical
Method: The particle size distribution of all liposome dispersions prepared was determined at 25° C. by dynamic light-scattering (DLS) using the ALV-NIBS/HPPS ALV-Laser, Vertriebsgesellschaft GmbH, (Langen, Germany) instrument.
However, so far the biological activity of the ceramides was not evaluated in vivo in spite their potential beneficial activity due to difficulties in their delivery. As mentioned above, ceramides by themselves are difficult to be dispersed in serum-free medium. […] When a volume of ceramides (C2Cer, C6Cer, and C16Cer) in ethanol:dodecane (98:2 v/v) was diluted into 100 volumes of serum-free medium a milky translucent dispersion was formed.
However, when these ceramide dispersions were diluted further (final dilution 1:1000) in serum-containing medium, a 4-6 fold increase in particle size was observed. As a control, when the solvents ethanol:dodecane (98:2) were mixed by themselves with medium without ceramides, no particles were detected by DLS. Also, for comparison, when ceramide solutions in ethanol (without dodecane) were diluted 1:100 in serum-containing medium very large particles were observed by DLS (Table 11).

[3] = Partition in the two phases of the Dole system; assay type: physicochemical
[4] = Table 8A, C-26 cells, free ceramide dispersions, read-out: IC50 (μM), 4 hr
[5] = Table 8A, C-26 cells, read-out: IC50 (μM), 24 hr
[6] = Table 8A, C-26 cells, read-out: IC50 (μM), 72 hr
[7] = Table 8B, read-out: IC50 (μM), 4 hr C-26
[8] = Table 8B, read-out: IC50 (μM), 24 hr C-26
[9] = Table 8B, read-out: IC50 (μM), 72 hr C-26
[10] = read-out: IC50 (μM), 4 hr OV-1063
[11] = read-out: IC50 (μM), 24 hr OV-1063
[12] = read-out: IC50 (μM), 72 hr OV-1063

| Compound | Apoptotic OV-1063 cells (% of total cell number), 24 hr (OV-1063 cells) [%] | Apoptotic OV-1063 cells (% of total cell number), 16 hr (OV-1063 cells) [%] | Apoptotic C-26 cells (% of total cell number), 16 hr (C-26 cells) [%] | Apoptotic C-26 cells (% of total cell number), 24 hr (C-26 cells) [%] | IC50 (C-26; [4]) [µM] | IC50 (C-26; [5]) [µM] | IC50 (C-26; [6]) [µM] | IC50 (C-26; [7]) [µM] | IC50 (C-26; [8]) [µM] | IC50 (C-26; [9]) [µM] | IC50 (OV-1063; [10]) [µM] | IC50 (OV-1063; [11]) [µM] | IC50 (OV-1063; [12]) [µM] | minimal area per molecule [1] | collapse point pressure of monolayer [1] | Area/molecule [1] [A^2] | Size (nm), Ethanol dispersion in serum-containing medium (1:100) [2] [nm] | Size (nm), Ethanol:dodecane (98:2) dispersion in serum-containing medium (1:1000) [2] [nm] | Size (nm), Ethanol:dodecane (98:2) dispersion in serum-free medium (1:100) [2] [nm] | Liposome formation (being a liposome forming lipid by itself) [3] | further results |
| --- | --- | --- | --- | --- | --- | --- | --- | --- | --- | --- | --- | --- | --- | --- | --- | --- | --- | --- | --- | --- | --- |
| CCCCCCCCCCCCC/C=C/[C@@H](O)[C@H](CO)NC(C)=O [C2Cer, N-Acetyl-D-erythro-sphingosine] | 60 | 48 | 7 | 14 | > 60 | > 30 | 20 ± 1 | > 60 | > 30 | 20 ± 1 | > 80 | > 30 | 25 ± 1.9 | about 38 Å^2 | about 42 mN/m | 38 | 6514 | 1400 | 330 | No | monolayer stability [1]: did not give a stable monolayer |
| CCCCCCCCCCCCC/C=C/[C@@H](O)[C@H](CO)NC(=O)CCCCC [C6Cer, N-hexanoyl-D-erythro-sphingosine] | 61 | 53 | 9 | 18 | 11 ± 5 | 4.1 ± 1.6 | 2.9 ± 1.2 | 11 ± 5 | 4.1 ± 1.6 | 2.9 ± 1.2 | 8 ± 0.1 | 4.5 ± 0.7 | 2.3 ± 1 | about 50 Å^2 | about 42 mN/m | 50 | 3780 | 2100 | 330 | No |  |
| CCCCCCCCCCCCC/C=C/[C@@H](O)[C@H](CO)NC(=O)CCCCCCCCCCCCCCC [C16Cer, N-palmitoyl-D-erythro-sphingosine] | 17 |  |  | 9 | > 100 | > 100 | 80 | > 100 | > 100 | 80 | > 100 | > 100 | 90 | ~37.5 Å^2 | up to 50 mN/m | 37.5 | 4740 | 2824 | 790 | No | monolayer stability [1]: unstable monolayer |

From patent US20060198882A1, “Stable liposomes or micelles comprising a sphinolipid and a peg-lipopolymer” (priority 2003, published 2006)
